Laboratory results: patent publication US20050009124A1, “Assays for detection of phosphoinositide kinase and phosphatase activity” (Echelon Biosciences Incorporated, priority 2001, published 2005)
Like-named read-outs stand apart in the source and are kept apart here.

How the values were obtained:
Assay type in all cases: binding
SMQ-Grp1 = molecular target: T1, SMQ-Grp1 (Homo sapiens, UniProt O43739); test: Competitive dequenching fluorogenic assay with SMQ-Grp1
T1 construct: small molecular quencher (Dabcyl, QSY 7 or QSY 9); made in house
T1 sequence (O43739 1-400): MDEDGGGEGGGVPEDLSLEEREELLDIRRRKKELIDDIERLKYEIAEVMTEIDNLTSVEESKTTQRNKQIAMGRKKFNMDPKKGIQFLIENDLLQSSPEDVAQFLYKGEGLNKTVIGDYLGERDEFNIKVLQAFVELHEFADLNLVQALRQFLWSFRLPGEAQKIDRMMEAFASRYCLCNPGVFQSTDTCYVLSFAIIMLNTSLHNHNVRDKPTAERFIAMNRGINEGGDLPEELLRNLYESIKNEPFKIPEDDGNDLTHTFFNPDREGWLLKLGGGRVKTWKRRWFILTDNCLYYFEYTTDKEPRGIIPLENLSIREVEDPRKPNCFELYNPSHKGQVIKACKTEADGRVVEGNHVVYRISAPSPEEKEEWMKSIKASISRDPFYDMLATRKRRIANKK
Procedure: The fluorogenic assays were set up in a black 384-well plate. The combination of 100 nM, 10 nM and 1 nM of SMQ-Grp1 conjugate was incubated with 100 nM, 50 nM and 25 nM BODIPY®-FL-labeled PI(3,4,5)P3. The total assay volume was […] in a PBS buffer at a pH of 7.5. The assay mixture was incubated in the dark for one hour at 25° C. The plate was then transferred to an Alpha Fusion plate reader and read with a 485/520 nm filter. […] For example, if BODIPY®-FL-PI(3,4,5)P3 is fixed at 25 nM, increasing the amount of Dabcyl-Grp1 conjugate (from 1 nM to 100 nM) caused decreasing amounts of fluorescence (FIG. 24). Similar fluorescence quenching profiles were shown for QSY 7-Grp1 and QSY 9-Grp1.
The quenching effects of BODIPY®-FL-PI(3,4,5)P3 by SMQ-Grp1 were specific. diC8 PI(3,4,5)P3 as a competitor antagonized the fluorescence quenching effect of BODIPY®-FL-PI(3,4,5)P3 by SMQ-Grp1 in a dose-response manner. diC8 PI(3,4,5)P3 was used at varying concentrations to compete with BODIPY®-FL-PI(3,4,5)P3 for binding to the SMQ-Grp1 conjugate. […] In each bar graph in FIG. 25, from the right to the left, the bars show the fluorescence reading of PBS as the background, the diC8 PI(3,4,5)P3 only, the SMQ-Grp1 conjugate only, BODIPY®-FL-PI(3,4,5)P3 only, Grp1-SMQ plus BODIPY®-FL-PI(3,4,5)P3, Grp1-SMQ plus BODIPY®-FL-PI(3,4,5)P3 with 10 pmol of diC8 PI(3,4,5)P3 as the competitor, Grp1-SMQ plus BODIPY®-FL-PI(3,4,5)P3 with 100 pmol of diC8 PI(3,4,5)P3 as the competitor, Grp1-SMQ plus BODIPY®-FL-PI(3,4,5)P3 with 1000 pmol of diC8 PI(3,4,5)P3 as the competitor, and Grp1-SMQ plus BODIPY®-FL-PI(3,4,5)P3 with 10000 pmol of diC8 PI(3,4,5)P3 as competitor. […]
Fluorogenic assays were also used to compare competition of diC8 PI(3,4,5)P3 to PI(4,5)P2 and PI(3)P. With increasing amounts of PI(3,4,5)P3 the signal begins to increase, indicating competition, whereas as PI(4,5)P2 and PI(3)P show little change, indicating less competition. […] The production (or presence) of PI(3,4,5)P3 in this assay system corresponds to the elevation of the fluorescence signal.

GST-GRP1-PH = molecular target: T2, GST-GRP1-PH (Homo sapiens, UniProt O43739); test: Competitive FP assay, displacement of fluorescent tracer from GST-GRP1-PH; conditions: displacement of BODIPY®-TMR-I(1,3,4,5)P4 tracer
T2 construct: The PH domain of GRP1 (general receptor for phosphoinositides) was used as a detector for PI(3,4,5)P3
T2 sequence (O43739 264-381 limits assumed): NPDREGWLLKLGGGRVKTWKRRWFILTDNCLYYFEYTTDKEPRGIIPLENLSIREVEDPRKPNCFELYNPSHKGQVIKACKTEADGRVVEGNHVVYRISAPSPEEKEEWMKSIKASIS
Procedure: (§1) In order to use these reagents in a competitive FP assay, unlabeled phosphoinositide products of an enzymatic reaction must be able to successfully compete with the labeled tracer for interaction with the binding proteins. In addition, the level of cross-reactivity of binding proteins with the phosphoinositides used as enzyme substrates should be minimal. To examine the suitability of these phosphoinositide binding proteins for this application, competition assays were performed using optimal amounts of lipid binding proteins and fluorescent tracers, mixed with increasing amounts of diC8-phosphoinositide competitors.
The sensitivity of this approach for detecting conversion of PI(4,5)P2 to PI(3,4,5)P3 was evaluated using GST-GRP1-PH protein and FAM and BODIPY®-TMR labeled tracers. Competition assays in which both diC8-PI(3,4,5)P3 and diC8-PI(4,5)P2 were added at increasing concentrations were performed.

GST-TAPP1 = GST-TAPP1 (Homo sapiens, UniProt Q9HB21); test: Competitive FP assay, displacement of BODIPY-TMR-PI(3,4)P2 tracer from GST-TAPP1
Procedure: as §1
Similar competition assays were performed to examine the selectivity and sensitivity of PI(3,4)P2 detection by GST-TAPP1 (FIG. 10). In these assays, the concentrations of GST-TAPP1 and the fluorescently labeled phosphoinositide were held constant as the concentration of unlabeled lipid competitor was increased. […] In implementing these assays, the initial amount of PI(3,4,5)P3 substrate should be kept low enough to minimize competition.

GST-Grp1 = molecular target: T3, GST-Grp1 (Homo sapiens, UniProt O43739); test: Competition fluorogenic assay with GST-Grp1/GS-QSY 7 complex; conditions: probe 10 nM, GST-Grp1 0.5 μM, GS-QSY 7 2.5 μM, increasing competitor
T3 sequence (O43739 1-400): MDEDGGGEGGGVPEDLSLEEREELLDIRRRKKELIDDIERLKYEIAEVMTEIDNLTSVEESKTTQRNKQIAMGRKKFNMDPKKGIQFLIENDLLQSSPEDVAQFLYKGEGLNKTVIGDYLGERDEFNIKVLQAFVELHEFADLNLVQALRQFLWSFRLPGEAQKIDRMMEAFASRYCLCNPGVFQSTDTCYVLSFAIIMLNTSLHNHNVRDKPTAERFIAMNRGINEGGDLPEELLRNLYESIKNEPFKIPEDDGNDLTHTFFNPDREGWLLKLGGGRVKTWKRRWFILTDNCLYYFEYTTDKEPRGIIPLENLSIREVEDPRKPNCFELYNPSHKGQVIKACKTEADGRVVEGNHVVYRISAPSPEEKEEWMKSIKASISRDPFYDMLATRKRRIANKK
Procedure: The fluorogenic assays using a glutathione quencher conjugate (e.g. GS-QSY 7) were set up in a black 384-well plate. A combination of the assay components described in detail below, including GST-Grp1, BODIPY®-FL-PI(3,4,5)P3, GS-QSY7, and phosphoinositide competitors, were incubated in the dark for 1 hour. The total reaction volume was either 25 or 50 μl in PBS (pH 7.4). The plate was then transferred to an Alpha Fusion plate reader and read with a 485/520 nm filter.
This fluorogenic assay was also specific.

[1] = Fluorogenic assay, quenching of BODIPY-FL-PI(3,4,5)P3 by SMQ-Grp1 conjugates
From the text: The chemical modification of LRPs, e.g. Grp1, a PI(3,4,5)P3 binder, with small molecular quenchers (SMQ) has been thoroughly studied in this invention. Three SMQs, Dabcyl-SE (4-((4-(dimethylamino)phenyl)azo)benzoic acid, succinimidyl ester), QSY 7-SE (9-[2-[[4-[[(2,5-dioxo-1-pyrrolidinyl)oxy]carbonyl]-1-piperidinyl]sulfonyl]phenyl]-3,6-bis(methylphenylamino)-, chloride) and QSY 9-SE (QSY® 9 carboxylic acid, succinimidyl ester, C43H39ClN4O13S3), with diverse structures, spectral properties, hydrophobicity and solubility properties, were coupled to Grp1. Specifically, SMQ-modified Grp1 still retains its binding activity and quenches the fluorescence of BODIPY®-FL labeled PI(3,4,5)P3. With a fixed amount of BODIPY®-FL-PI(3,4,5)P3 in solution, increasing the amount of SMQ-Grp1 caused decreasing fluorescence of the PI(3,4,5)P3 fluorescent probes. At a ratio of 2:1 (QSY 7-Grp1:BODIPY®-FL-PI(3,4,5)P3), QSY 7-Grp1 quenched up to 70% of the fluorescence intensity of BODIPY®-FL PI(3,4,5)P3.
The fluorogenic assays were set up in a black 384-well plate. […] The plate was then transferred to an Alpha Fusion plate reader and read with a 485/520 nm filter. […] For example, if BODIPY®-FL-PI(3,4,5)P3 is fixed at 25 nM, increasing the amount of Dabcyl-Grp1 conjugate (from 1 nM to 100 nM) caused decreasing amounts of fluorescence (FIG. 24). […]

GST-TAPP1, sequence (Q9HB21 whole entry): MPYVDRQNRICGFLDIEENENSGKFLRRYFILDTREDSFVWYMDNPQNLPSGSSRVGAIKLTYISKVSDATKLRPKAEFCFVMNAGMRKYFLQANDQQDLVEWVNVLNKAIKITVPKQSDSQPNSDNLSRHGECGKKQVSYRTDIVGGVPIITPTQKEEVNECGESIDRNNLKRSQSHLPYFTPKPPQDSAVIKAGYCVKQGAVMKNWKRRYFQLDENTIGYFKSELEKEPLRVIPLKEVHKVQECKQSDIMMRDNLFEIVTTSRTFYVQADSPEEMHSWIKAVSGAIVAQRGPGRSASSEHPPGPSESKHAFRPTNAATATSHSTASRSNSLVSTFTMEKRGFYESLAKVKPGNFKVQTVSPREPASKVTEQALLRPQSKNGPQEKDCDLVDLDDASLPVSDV

PI(3)P
change of fluorescence signal (competition) (SMQ-Grp1; increasing amounts of competitor, compared with diC8 PI(3,4,5)P3): little change

CCCCCCCC(=O)OC[C@H](COP(=O)(O)OC1[C@H](O)[C@H](OP(=O)(O)O)C(OP(=O)(O)O)[C@H](OP(=O)(O)O)[C@H]1O)OC(=O)CCCCCCC (stereo partly drawn) [diC8-PI(3,4,5)P3]
IC50 (GST-GRP1-PH): 0.218 µM | IC50 (GST-TAPP1; predicted, read-out: predicted IC50): 1.51 µM | fluorescence restored, of the original (SMQ-Grp1; 10000 pmol competitor, Dabcyl-Grp1 100 nM, probe 50 nM): up to 70%

CCCCCCCCCCCCCCCC(=O)OC[C@H](COP(=O)(O)OC1[C@H](O)[C@H](OP(=O)(O)O)C(OP(=O)(O)O)[C@H](OP(=O)(O)O)[C@H]1O)OC(=O)CCCCCCCCCCCCCCC (stereo partly drawn) [DiC16 PI(3,4,5)P3]
effect on fluorescence of BODIPY®-FL PI(3,4,5)P3 (competition) (GST-Grp1): restored the fluorescence

CCCCCCCC(=O)OC[C@H](COP(=O)(O)O[C@H]1[C@H](O)[C@@H](O)[C@H](OP(=O)(O)O)[C@@H](OP(=O)(O)O)[C@H]1O)OC(=O)CCCCCCC [diC8-PI(3,4)P2]
IC50 (GST-TAPP1; read-out: IC50): 0.165 µM

CCCCCCCCCCCCCCCC(=O)OC[C@H](COP(=O)(O)O[C@@H]1[C@H](O)[C@H](O)[C@@H](OP(=O)(O)O)[C@H](OP(=O)(O)O)[C@H]1O)OC(=O)CCCCCCCCCCCCCCC [diC16 PI(4,5)P2]
effect on fluorescence of BODIPY®-FL PI(3,4,5)P3 (competition) (GST-Grp1): only marginally increased the fluorescence at higher concentrations

B1: QSY 7-Grp1: Grp1, a PI(3,4,5)P3 binder, coupled to small molecular quencher QSY 7-SE (conjugate, UniProt O43739 1-400, looked up)
Cytohesin-3: MDEDGGGEGGGVPEDLSLEEREELLDIRRRKKELIDDIERLKYEIAEVMTEIDNLTSVEESKTTQRNKQIAMGRKKFNMDPKKGIQFLIENDLLQSSPEDVAQFLYKGEGLNKTVIGDYLGERDEFNIKVLQAFVELHEFADLNLVQALRQFLWSFRLPGEAQKIDRMMEAFASRYCLCNPGVFQSTDTCYVLSFAIIMLNTSLHNHNVRDKPTAERFIAMNRGINEGGDLPEELLRNLYESIKNEPFKIPEDDGNDLTHTFFNPDREGWLLKLGGGRVKTWKRRWFILTDNCLYYFEYTTDKEPRGIIPLENLSIREVEDPRKPNCFELYNPSHKGQVIKACKTEADGRVVEGNHVVYRISAPSPEEKEEWMKSIKASISRDPFYDMLATRKRRIANKK
modifications: QSY 7 quencher
quenching of fluorescence intensity of BODIPY®-FL PI(3,4,5)P3 ([1]; ratio 2:1 (QSY 7-Grp1:BODIPY®-FL-PI(3,4,5)P3)): up to 70%

B2: Dabcyl-Grp1 conjugate: Grp1, a PI(3,4,5)P3 binder, coupled to small molecular quencher Dabcyl-SE (conjugate, UniProt O43739 1-400, looked up)
Cytohesin-3: MDEDGGGEGGGVPEDLSLEEREELLDIRRRKKELIDDIERLKYEIAEVMTEIDNLTSVEESKTTQRNKQIAMGRKKFNMDPKKGIQFLIENDLLQSSPEDVAQFLYKGEGLNKTVIGDYLGERDEFNIKVLQAFVELHEFADLNLVQALRQFLWSFRLPGEAQKIDRMMEAFASRYCLCNPGVFQSTDTCYVLSFAIIMLNTSLHNHNVRDKPTAERFIAMNRGINEGGDLPEELLRNLYESIKNEPFKIPEDDGNDLTHTFFNPDREGWLLKLGGGRVKTWKRRWFILTDNCLYYFEYTTDKEPRGIIPLENLSIREVEDPRKPNCFELYNPSHKGQVIKACKTEADGRVVEGNHVVYRISAPSPEEKEEWMKSIKASISRDPFYDMLATRKRRIANKK
modifications: Dabcyl quencher
quenching of fluorescence of BODIPY®-FL-PI(3,4,5)P3 ([1]; SMQ-Grp1 100 nM, BODIPY®-FL-PI(3,4,5)P3 50 nM): ~70%
